Experimental data as given in US10703733B2, “MCL-1 inhibitors” (Gilead Sciences, Inc., priority 2018, dated 2020).

Legend:
[1] = tested on: SKBR3 cells; test: SKBR3 Cell Viability Assay (CellTiter Glo); format: cell-based; conditions: Homo sapiens, SK-BR-3, 72 h, CellTiter Glo luminescence, read-out: MCL-1 CV SKBR3 EC50
Method in brief: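 SKBR3 cells (6,000/well) in McCoy 5A + 10% FBS exposed to serially diluted compound for 72 h at 37° C., 5% CO2. Viability by CellTiter Glo luminescence; % inhibition normalized to DMSO (negative) and 10 μM puromycin (positive).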

[2] = target: MCL-1/Bim interaction (recombinant human MCL-1 protein, residues 171-327; biotinylated human Bim peptide, residues 51-76) (Homo sapiens (Human), UniProt Q07820); test: MCL-1/Bim Binding AlphaLISA Assay; conditions: 0.0625 nM 6xHis-Mcl-1 (171-327), 0.0625 nM biotinylated-Bim peptide
MCL-1/Bim interaction (recombinant human MCL-1 protein, residues 171-327; biotinylated human Bim peptide, residues 51-76), sequence (Q07820 171-327): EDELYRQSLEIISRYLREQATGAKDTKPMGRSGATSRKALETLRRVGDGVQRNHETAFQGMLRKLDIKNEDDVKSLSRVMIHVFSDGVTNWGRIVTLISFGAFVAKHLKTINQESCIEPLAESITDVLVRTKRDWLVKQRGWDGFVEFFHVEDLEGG
Method in brief: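 AlphaLISA with 0.0625 nM His-tagged MCL-1 (171-327) and 0.0625 nM biotinylated Bim (51-76) in 20 mM Hepes pH 7.5, 150 mM NaCl, 0.002% Brij 35, 1 mM DTT, 0.01% BSA. Compound preincubated 1 h with MCL-1, then Bim 2 h, acceptor beads 1 h, donor beads 1 h; percent inhibition against DMSO and no-protein/no-peptide controls.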

## COC[C@@H]1CCN(C(=O)N[S@@]2(=O)=NC(=O)c3ccc4c(c3)N(C[C@@H]3CC[C@H]3[C@@H](OC)/C=C/C[C@H](C)C2)C[C@@]2(CCCc3cc(Cl)ccc32)CO4)C1 [Example 256]
[1]
  EC50: 161 nM
[2]
  IC50: 0.162 nM

## COC1CC2(C1)CN(C(=O)N[S@@]1(=O)=NC(=O)c3ccc4c(c3)N(C[C@@H]3CC[C@H]3[C@@H](OC)/C=C/C[C@H](C)C1)C[C@@]1(CCCc3cc(Cl)ccc31)CO4)C2 [Example 257]
[1]
  EC50: 89.7 nM
[2]
  IC50: 0.083 nM

## CO[C@H]1/C=C/C[C@H](C)C[S@@](=O)(NC(=O)N2CCC(C(F)F)CC2)=NC(=O)c2ccc3c(c2)N(C[C@@H]2CC[C@H]21)C[C@@]1(CCCc2cc(Cl)ccc21)CO3 [Example 258]
[1]
  EC50: 195 nM
[2]
  IC50: 0.117 nM

## CO[C@H]1/C=C/C[C@H](C)C[S@@](=O)(NC(=O)N2CC(C3COC3)C2)=NC(=O)c2ccc3c(c2)N(C[C@@H]2CC[C@H]21)C[C@@]1(CCCc2cc(Cl)ccc21)CO3 [Example 261]
[1]
  EC50: 72 nM
[2]
  IC50: 0.053 nM

## COc1nn(C2CC2)cc1C(=O)N[S@@]1(=O)=NC(=O)c2ccc3c(c2)N(C[C@@H]2CC[C@H]2[C@@H](OC)/C=C/C[C@H](C)C1)C[C@@]1(CCCc2cc(Cl)ccc21)CO3 [Example 262]
[1]
  EC50: 85.8 nM
[2]
  IC50: 0.056 nM

## CO[C@H]1/C=C/C[C@H](C)C[S@@](=O)(NC(=O)N2CC(OC3CC3)C2)=NC(=O)c2ccc3c(c2)N(C[C@@H]2CC[C@H]21)C[C@@]1(CCCc2cc(Cl)ccc21)CO3 [Example 263]
[1]
  EC50: 62.2 nM
[2]
  IC50: 0.073 nM

## CO[C@H]1/C=C/C[C@H](C)C[S@@](=O)(NC(=O)N2CC(C(C)(C)OC)C2)=NC(=O)c2ccc3c(c2)N(C[C@@H]2CC[C@H]21)C[C@@]1(CCCc2cc(Cl)ccc21)CO3 [Example 265]
[1]
  EC50: 96.2 nM
[2]
  IC50: 0.046 nM

## COC1CN(C(=O)N[S@@]2(=O)=NC(=O)c3ccc4c(c3)N(C[C@@H]3CC[C@H]3[C@@H](O)/C=C/C[C@H](C)C2)C[C@@]2(CCCc3cc(Cl)ccc32)CO4)C1 [Example 266]
[1]
  EC50: 53.8 nM
[2]
  IC50: 0.085 nM

## CO[C@H]1/C=C/C[C@H](C)C[S@@](=O)(NC(=O)N2CC(CO)(OC)C2)=NC(=O)c2ccc3c(c2)N(C[C@@H]2CC[C@H]21)C[C@@]1(CCCc2cc(Cl)ccc21)CO3 [Example 267]
[1]
  EC50: 184 nM
[2]
  IC50: 0.03 nM

## COCC1(O)CN(C(=O)N[S@@]2(=O)=NC(=O)c3ccc4c(c3)N(C[C@@H]3CC[C@H]3[C@@H](OC)/C=C/C[C@H](C)C2)C[C@@]2(CCCc3cc(Cl)ccc32)CO4)C1 [Example 268]
[1]
  EC50: 88.8 nM
[2]
  IC50: 0.058 nM

## COc1ccc(C(=O)N[S@@]2(=O)=NC(=O)c3ccc4c(c3)N(C[C@@H]3CC[C@H]3[C@@H](OC)/C=C/C[C@H](C)C2)C[C@@]2(CCCc3cc(Cl)ccc32)CO4)cc1 [Example 269]
[1]
  EC50: 264 nM
[2]
  IC50: 0.081 nM

## CO[C@H]1/C=C/C[C@H](C)C[S@@](=O)(NC(=O)N2CCN(CC#N)CC2)=NC(=O)c2ccc3c(c2)N(C[C@@H]2CC[C@H]21)C[C@@]1(CCCc2cc(Cl)ccc21)CO3 [Example 270]
[1]
  EC50: 61.7 nM
[2]
  IC50: 0.041 nM

## COc1ncc(C(=O)N[S@@]2(=O)=NC(=O)c3ccc4c(c3)N(C[C@@H]3CC[C@H]3[C@@H](OC)/C=C/C[C@H](C)C2)C[C@@]2(CCCc3cc(Cl)ccc32)CO4)c(OC)n1 [Example 271]
[1]
  EC50: 176 nM
[2]
  IC50: 0.1 nM

## CO[C@H]1/C=C/C[C@H](C)C[S@@](=O)(NC(=O)N2CC3(CN(C)C(=O)O3)C2)=NC(=O)c2ccc3c(c2)N(C[C@@H]2CC[C@H]21)C[C@@]1(CCCc2cc(Cl)ccc21)CO3 [Example 272]
[1]
  EC50: 47.9 nM
[2]
  IC50: 0.018 nM

## COc1ncc(C(=O)N[S@@]2(=O)=NC(=O)c3ccc4c(c3)N(C[C@@H]3CC[C@H]3[C@@H](OC)/C=C/C[C@H](C)C2)C[C@@]2(CCCc3cc(Cl)ccc32)CO4)cn1 [Example 273]
[1]
  EC50: 81 nM
[2]
  IC50: 0.077 nM

## COCC1(OC)CN(C(=O)N[S@@]2(=O)=NC(=O)c3ccc4c(c3)N(C[C@@H]3CC[C@H]3[C@@H](OC)/C=C/C[C@H](C)C2)C[C@@]2(CCCc3cc(Cl)ccc32)CO4)C1 [Example 274]
[1]
  EC50: 82.6 nM
[2]
  IC50: 0.043 nM

## CO[C@H]1/C=C/C[C@H](C)C[S@@](=O)(NC(=O)N2CC(Oc3ccncc3)C2)=NC(=O)c2ccc3c(c2)N(C[C@@H]2CC[C@H]21)C[C@@]1(CCCc2cc(Cl)ccc21)CO3 [Example 275]
[1]
  EC50: 90.4 nM
[2]
  IC50: 0.053 nM

## CO[C@H]1/C=C/C[C@H](C)C[S@@](=O)(NC(=O)N2CC(OC)(c3nccn3C)C2)=NC(=O)c2ccc3c(c2)N(C[C@@H]2CC[C@H]21)C[C@@]1(CCCc2cc(Cl)ccc21)CO3 [Example 276]
[1]
  EC50: 64.3 nM
[2]
  IC50: 0.068 nM

## CO[C@H]1/C=C/C[C@H](C)C[S@@](=O)(NC(=O)N2CC(OC)(c3ncnn3C)C2)=NC(=O)c2ccc3c(c2)N(C[C@@H]2CC[C@H]21)C[C@@]1(CCCc2cc(Cl)ccc21)CO3 [Example 277]
[1]
  EC50: 60.9 nM
[2]
  IC50: 0.061 nM

## COc1cc(C(=O)N[S@@]2(=O)=NC(=O)c3ccc4c(c3)N(C[C@@H]3CC[C@H]3[C@@H](OC)/C=C/C[C@H](C)C2)C[C@@]2(CCCc3cc(Cl)ccc32)CO4)c(OC)nn1 [Example 278]
[1]
  EC50: 80.5 nM
[2]
  IC50: 0.089 nM

## COc1nn(C)cc1C(=O)N[S@@]1(=O)=NC(=O)c2ccc3c(c2)N(C[C@@H]2CC[C@H]2[C@@H](O)CCC[C@H](C)C1)C[C@@]1(CCCc2cc(Cl)ccc21)CO3 [Example 280]
[1]
  EC50: 50 nM
[2]
  IC50: 0.044 nM

## COc1nn(C)cc1C(=O)N[S@@]1(=O)=NC(=O)c2ccc3c(c2)N(C[C@@H]2CC[C@H]2[C@@H](OC)/C=C/[C@H](OC)[C@H](C)C1)C[C@@]1(CCCc2cc(Cl)ccc21)CO3 [Example 283]
[1]
  EC50: 84.8 nM
[2]
  IC50: 0.029 nM

## CO[C@H]1/C=C/C[C@H](C)C[S@@](=O)(NC(=O)c2cc(CN3CCN(C(C)C)[C@H](C)C3)n(C)c2)=NC(=O)c2ccc3c(c2)N(C[C@@H]2CC[C@H]21)C[C@@]1(CCCc2cc(Cl)ccc21)CO3 [Example 284]
[1]
  EC50: 54.7 nM
[2]
  IC50: 0.061 nM

## COC(=O)N[C@H](C(=O)N1CCN(C(=O)N[S@@]2(=O)=NC(=O)c3ccc4c(c3)N(C[C@@H]3CC[C@H]3[C@@H](OC)/C=C/C[C@H](C)C2)C[C@@]2(CCCc3cc(Cl)ccc32)CO4)C[C@@H]1C)C(C)C [Example 285]
[1]
  EC50: 79.7 nM
[2]
  IC50: 0.131 nM

## COC1CN(C2CN(C(=O)N[S@@]3(=O)=NC(=O)c4ccc5c(c4)N(C[C@@H]4CC[C@H]4[C@@H](OC)/C=C/C[C@H](C)C3)C[C@@]3(CCCc4cc(Cl)ccc43)CO5)C2)C1 [Example 286]
[1]
  EC50: 65.1 nM
[2]
  IC50: 0.037 nM

## COC1CCN(C2CN(C(=O)N[S@@]3(=O)=NC(=O)c4ccc5c(c4)N(C[C@@H]4CC[C@H]4[C@@H](OC)/C=C/C[C@H](C)C3)C[C@@]3(CCCc4cc(Cl)ccc43)CO5)C2)CC1 [Example 287]
[1]
  EC50: 25 nM
[2]
  IC50: 0.029 nM

## COc1nn(C)cc1C(=O)N[S@@]1(=O)=NC(=O)c2ccc3c(c2)N(C[C@@H]2CC[C@H]2[C@@H](OC)/C=C/[C@H](Oc2cnccn2)[C@H](C)C1)C[C@@]1(CCCc2cc(Cl)ccc21)CO3 [Example 288]
[1]
  EC50: 170 nM
[2]
  IC50: 0.144 nM

## CO[C@H]1/C=C/C[C@H](C)C[S@@](=O)(NC(=O)N2CC(O)C2)=NC(=O)c2ccc3c(c2)N(C[C@@H]2CC[C@H]21)C[C@@]1(CCCc2cc(Cl)ccc21)CO3 [Example 289]
[1]
  EC50: 588 nM
[2]
  IC50: 0.053 nM
